# Experimental data as given in US20250283050A1, “METHOD OF CANCER TREATMENT” (priority 2021, published 2025).
# Key:
# [1] = test system: ovarian cancer; test: en bloc tumor culture with chemotherapeutic agent and Hom-1-TAMs: ovarian cancer; format: cell-based; settings: agent plus Hom-1-TAMs
# Procedure: (§1) Additional chemo-reagents used in this study are listed below.
# (§2) Tumor tissue were washed with 1×PBS buffer plus antibiotics and then cut into 0.5 cm pieces. Tissues were cultured in 2 mL of RPMI 1640 medium, supplemented with 2-10% FBS (Sigma) and 1% antibiotic-antimycotic solution (Gibco) in 24-well plate (Corning). The cultures were incubated at a 37° C., 5% CO2 incubator. […] To evaluate the effect of chemotherapeutic agents, chemo-reagents at indicated concentration or PBS was used instead of the anti-PD-1 antibody. For en bloc tissue and macrophage co-culture assay, 0.25×10^6 GFP-Hom-1 or control GFP transfected autologous macrophages of the same patient were added to the en bloc tissue culture wells. After gently shaking, the plate was incubated at 37° C., 5% CO2 for 3-5 days. The en bloc tissues were then subjected to single 1 cell isolation and analysis as described.
# [2] = test system: stomach cancer; test: en bloc tumor culture with chemotherapeutic agent and Hom-1-TAMs: stomach cancer; format: cell-based; settings: agent plus Hom-1-TAMs
# Procedure: Besides CRC, Hom-1-TAMs reverse immune polarity of PDAC and NSCLC TME (data not shown). The effects of Hom-1-TAM on tumoricidal effects of DOX were further explored on other tumor types, such as PDAC, NSLC, esophageal cancer and stomach cancers.
# as §1, §2
compound,measurement,setting,value
CC(=O)O[C@H]1C(=O)[C@@]2(C)[C@H]([C@H](OC(=O)c3ccccc3)[C@]3(O)C[C@H](OC(=O)[C@H](O)[C@@H](NC(=O)c4ccccc4)c4ccccc4)C(C)=C1C3(C)C)[C@]1(OC(C)=O)CO[C@@H]1C[C@@H]2O [Taxol],tumoricidal effects promoted by Hom-1-TAMs,[1],promoted
same,tumoricidal effects promoted by Hom-1-TAMs,[2],promoted
